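Cells were grown in 96-well plates and exposed to each compound for 48 hours at five concentrations; endpoints were interpolated linearly between bracketing concentrations, or set to the highest concentration if not reached. GI50 marks 50% less growth.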 Active and inactive are the calls of the source. No stated cut-off is given here; in the data, active = GI50 up to about 1.1 µM and inactive = higher.
Columns and labels:
Assay in all cases: growth of human tumour cells (NCI), 48 h
SK-MEL-28 = system: SK-MEL-28
HCT-15 = system: HCT-15
786-0 = system: 786-0
KM12 = system: KM12
CAKI-1 = system: CAKI-1
SN12C = system: SN12C
SW-620 = system: SW-620
Hs-578T = system: Hs-578T
NCI-H460 = system: NCI-H460
A549 = system: A549
CCRF-CEM = system: CCRF-CEM
HCT-116 = system: HCT-116
IGROV-1 = system: IGROV-1
OVCAR-3 = system: OVCAR-3
DU-145 = system: DU-145
SNB-19 = system: SNB-19
SF-539 = system: SF-539
UACC-62 = system: UACC-62
RPMI-8226 = system: RPMI-8226
T47D = system: T47D

Row | SMILES | GI50 (SK-MEL-28) | GI50 (HCT-15) | GI50 (786-0) | GI50 (KM12) | GI50 (CAKI-1) | GI50 (SN12C) | GI50 (SW-620) | GI50 (Hs-578T) | GI50 (NCI-H460) | GI50 (A549) | GI50 (CCRF-CEM) | GI50 (HCT-116) | GI50 (IGROV-1) | GI50 (OVCAR-3) | GI50 (DU-145) | GI50 (SNB-19) | GI50 (SF-539) | GI50 (UACC-62) | GI50 (RPMI-8226) | GI50 (T47D)
1 | CCCCCCCCCCCCCC[C@@H](O)[C@H]1CC[C@H]([C@H]2CC[C@H]([C@H](O)CCCCCC[C@@H](O)CC3=C[C@H](C)OC3=O)O2)O1 | > 25 µM (inactive) | > 25 µM | > 25 µM (inactive) | > 25 µM (inactive) | > 25 µM (inactive) | 2.2 µM (inactive) | > 25 µM (inactive) | 1.63 µM (inactive) | 0.0552 µM (active) | > 25 µM (inactive) | > 25 µM (inactive) | 0.203 µM (active) | > 25 µM (inactive) | > 25 µM (inactive) | 4.24 µM (inactive) | > 25 µM (inactive) | > 13.8 µM (inactive) | 1.54 µM (inactive) | – | –
2 | Cc1c(C(=O)CC(=O)C(=O)Nc2ccc(Cl)c(Cl)c2)[n+]([O-])c2ccccc2[n+]1[O-] | 37.9 µM (inactive) | 20.5 µM | 25.8 µM (inactive) | 25.1 µM (inactive) | 51.9 µM (inactive) | 23.8 µM (inactive) | 25.1 µM (inactive) | – | 24.7 µM (inactive) | 27 µM (inactive) | 17.2 µM (inactive) | 19 µM (inactive) | 18.7 µM (inactive) | 2.42 µM (inactive) | – | 27 µM (inactive) | 26.9 µM (inactive) | 17.3 µM (inactive) | 20.8 µM (inactive) | –
3 | Cc1ccc(C(=O)N/N=C(\N=N\c2ccccc2[N+](=O)[O-])c2ccc(N(C)C)cc2)cc1 | > 100 µM (inactive) | 92.5 µM | > 100 µM (inactive) | > 100 µM (inactive) | > 100 µM (inactive) | > 100 µM (inactive) | > 100 µM (inactive) | > 100 µM (inactive) | 66.8 µM (inactive) | > 100 µM (inactive) | > 100 µM (inactive) | > 100 µM (inactive) | > 100 µM (inactive) | 92 µM (inactive) | – | > 100 µM (inactive) | > 100 µM (inactive) | 17.4 µM (inactive) | > 100 µM (inactive) | –
4 | CN(/N=C/c1ccccn1)C1=NCCCCN1 | > 100 µM (inactive) | > 100 µM | > 100 µM (inactive) | > 100 µM (inactive) | > 100 µM (inactive) | – | > 100 µM (inactive) | > 100 µM (inactive) | > 100 µM (inactive) | > 100 µM (inactive) | > 100 µM (inactive) | > 100 µM (inactive) | > 100 µM (inactive) | > 100 µM (inactive) | – | > 100 µM (inactive) | > 100 µM (inactive) | > 100 µM (inactive) | > 100 µM (inactive) | > 100 µM (inactive)
5 | CC[C@H]1C=CCC[C@@]2(C[C@@H]3CC[C@H]4[C@@H](C(=O)OCCCCCCCCCCCCCCCC(=O)N(CCCNC(C)=O)C[C@H](CCNC(C)=O)OC(C)=O)[C@@]5(CCC[C@@H](C)O5)NC(=[N+]34)N2)O1 | 1.28 µM (inactive) | 1.7 µM | 1.98 µM (inactive) | 1.38 µM (inactive) | 2.22 µM (inactive) | 2.01 µM (inactive) | 1.53 µM (inactive) | 1.93 µM (inactive) | 1.6 µM (inactive) | 1.88 µM (inactive) | – | 1.58 µM (inactive) | 1.31 µM (inactive) | 0.787 µM (active) | 1.57 µM (inactive) | 1.62 µM (inactive) | 1.48 µM (inactive) | 1.85 µM (inactive) | 0.227 µM (active) | –
6 | CN(C)c1ccc(/C=N/Nc2nc3ccccc3c(=O)n2-c2ccccc2)cc1 | > 100 µM (inactive) | > 100 µM | 23.7 µM (inactive) | > 100 µM (inactive) | > 100 µM (inactive) | > 100 µM (inactive) | > 100 µM (inactive) | – | > 100 µM (inactive) | > 100 µM (inactive) | > 100 µM (inactive) | 51.5 µM (inactive) | > 100 µM (inactive) | 27 µM (inactive) | > 100 µM (inactive) | 34.9 µM (inactive) | 30.4 µM (inactive) | 28.6 µM (inactive) | – | > 100 µM (inactive)
7 | O/N=C1/C(=C/c2ccc(Cl)c(Cl)c2)CCCC1C(NO)c1ccc(Cl)c(Cl)c1 (configuration not stated) | 17.9 µM (inactive) | 16.8 µM | 19.5 µM (inactive) | 18 µM (inactive) | 18.8 µM (inactive) | 17.8 µM (inactive) | 17.9 µM (inactive) | – | 21.1 µM (inactive) | 17.2 µM (inactive) | 17.2 µM (inactive) | 16.2 µM (inactive) | 19.9 µM (inactive) | 14.7 µM (inactive) | – | 17.6 µM (inactive) | 18.1 µM (inactive) | 18 µM (inactive) | 17.1 µM (inactive) | –
8 | CCOC(=O)CSc1nnc(CSc2nc(-c3ccccc3)c(-c3ccccc3)[nH]2)n1-c1ccccc1 | > 58.7 µM (inactive) | > 100 µM | 24.6 µM (inactive) | > 75.9 µM (inactive) | – | 18.9 µM (inactive) | > 100 µM (inactive) | – | > 100 µM (inactive) | > 100 µM (inactive) | > 54 µM (inactive) | > 56.5 µM (inactive) | > 83 µM (inactive) | > 100 µM (inactive) | 15.4 µM (inactive) | > 100 µM (inactive) | 20.7 µM (inactive) | 27.2 µM (inactive) | > 80.4 µM (inactive) | 26.7 µM (inactive)
9 | CCC(CCCN)Nc1cc(OC)cc2cccnc12 (configuration not stated) | > 100 µM (inactive) | > 100 µM | > 100 µM (inactive) | > 100 µM (inactive) | > 100 µM (inactive) | > 100 µM (inactive) | > 100 µM (inactive) | > 100 µM (inactive) | > 100 µM (inactive) | > 100 µM (inactive) | 48.9 µM (inactive) | > 100 µM (inactive) | 87.3 µM (inactive) | 40.4 µM (inactive) | > 100 µM (inactive) | > 100 µM (inactive) | > 100 µM (inactive) | 46.3 µM (inactive) | – | –
10 | N#CC(=S)Nc1cccc(Cl)c1 | 44.7 µM (inactive) | 27.9 µM | 40.5 µM (inactive) | 24.8 µM (inactive) | 41.9 µM (inactive) | 44.1 µM (inactive) | 53.2 µM (inactive) | – | 19.9 µM (inactive) | 23.8 µM (inactive) | 30 µM (inactive) | 55.3 µM (inactive) | 5.13 µM (inactive) | 16 µM (inactive) | 50.8 µM (inactive) | 54.5 µM (inactive) | 25.9 µM (inactive) | 19 µM (inactive) | 5.38 µM (inactive) | 27.2 µM (inactive)
11 | CCCCCCN(N)C(=O)CC#N | > 100 µM (inactive) | > 100 µM | > 100 µM (inactive) | 23 µM (inactive) | > 100 µM (inactive) | > 100 µM (inactive) | > 100 µM (inactive) | – | > 100 µM (inactive) | > 100 µM (inactive) | > 100 µM (inactive) | 47.6 µM (inactive) | > 100 µM (inactive) | 79.1 µM (inactive) | – | > 10 µM (inactive) | > 100 µM (inactive) | 60.4 µM (inactive) | 19.8 µM (inactive) | –
12 | Oc1ccccc1/C=C/c1csnn1 | > 100 µM (inactive) | > 51.4 µM | > 31.6 µM (inactive) | > 100 µM (inactive) | > 100 µM (inactive) | > 100 µM (inactive) | > 65.9 µM (inactive) | – | > 69.7 µM (inactive) | > 100 µM (inactive) | > 100 µM (inactive) | 98.4 µM (inactive) | > 100 µM (inactive) | > 100 µM (inactive) | – | > 100 µM (inactive) | > 100 µM (inactive) | > 100 µM (inactive) | > 100 µM (inactive) | –
13 | COc1ccc(C2CC(c3ccc(NS(=O)(=O)c4cc([N+](=O)[O-])ccc4C)cc3)=NN2S(=O)(=O)c2cc([N+](=O)[O-])ccc2C)cc1 (configuration not stated) | > 100 µM (inactive) | 36.2 µM | 88.5 µM (inactive) | 46 µM (inactive) | 54.2 µM (inactive) | 43.5 µM (inactive) | 72.9 µM (inactive) | – | 32.4 µM (inactive) | 34.5 µM (inactive) | 65.2 µM (inactive) | 32.7 µM (inactive) | 44.4 µM (inactive) | 33.4 µM (inactive) | > 100 µM (inactive) | 61.2 µM (inactive) | – | 26.4 µM (inactive) | 23.6 µM (inactive) | 71.4 µM (inactive)
14 | CCOP(=O)(/C=C/n1cc(C)c(=O)[nH]c1=O)OCC | > 100 µM (inactive) | > 100 µM | > 100 µM (inactive) | > 100 µM (inactive) | > 100 µM (inactive) | > 100 µM (inactive) | > 100 µM (inactive) | – | > 100 µM (inactive) | > 100 µM (inactive) | > 100 µM (inactive) | > 100 µM (inactive) | > 100 µM (inactive) | > 100 µM (inactive) | > 100 µM (inactive) | > 100 µM (inactive) | > 100 µM (inactive) | > 100 µM (inactive) | > 100 µM (inactive) | > 100 µM (inactive)
15 | CCOC(=O)c1cnc2cc3cccccc3n2c1=O | > 100 µM (inactive) | > 100 µM | > 100 µM (inactive) | 60.7 µM (inactive) | > 100 µM (inactive) | > 100 µM (inactive) | > 100 µM (inactive) | – | > 100 µM (inactive) | > 100 µM (inactive) | > 100 µM (inactive) | 39.3 µM (inactive) | > 100 µM (inactive) | > 100 µM (inactive) | – | > 100 µM (inactive) | > 100 µM (inactive) | > 100 µM (inactive) | > 100 µM (inactive) | –

Source: ChEMBL document CHEMBL1201862, “PubChem BioAssay data set” (2004)
